Assay results from patent US20160374979A1, “Method of Treatment of Alopecia with Monoterpenoids” (CELLMID LIMITED, priority 2013, published 2016).

Legend:
[1] = system: FGF-5-dependent cell proliferation (FR-BaF3 cells expressing FGFR-1c); test: FR-Ba/F3 cell proliferation/viability assay in the presence of FGF-5 (CCK-8); format: cell-based, murine
Method: Ba/F3 is a murine interleukin-3 (IL-3)-dependent pro-B cell line. […] That is, compounds were tested for their ability to modulate proliferation of FR-Ba/F3 cells in the presence of recombinant human FGF-5 (rhFGF-5) prepared according to Maeda et al., Nishi Nihon Hifuka, 69(1): 81-86, 2007.
Briefly, a suitable plasmid expressing FGFR-1c was introduced into […] ER-Ba/F3 cells, and the cells were maintained in RPMI RPMI-1640 with 10% FBS and 1.3×10^−17 M of murine IL-3 (Sigma, St Louis, […].) containing antibiotic G418 sulfate (Promega, Medison, Wis.). The inventors compared proliferation of FR/BaF3 cells in culture medium containing IL3 or FGF-5 and a different concentration in the range from 0.005% (w/v) to 1.0% (w/v) of each test compound listed in Example 1. The FR-BaF3 cells were seeded at 5×10^4/mL cells per well in 96-well, micro-culture plates (Falcon) in RPMI-1640 culture medium containing 10% fetal bovine serum, 5 μg/mL heparin. Recombinant human FGF-5 (rhFGF-5; 1 μg/mL) was added to one group, and IL-3 (0.2 ng/mL) (Sigma) was added to another group. The test compounds were then introduced to the micro-culture plate wells. Total volume of media per well was 100 μl. Control groups lacking test compound were also prepared for each of the IL-3-supplemented and FGF-5-supplemented samples. The plates were then incubated at 37° C. in 5% CO2 for 3 days.
After 3 days, colorimetric assays were performed using a Cell Counting Kit-8 (CCK-8) (Wako) according to the manufacturer's instructions to measure cell proliferation or suppression thereof by the test compound at varying concentrations. Briefly, 10 μl (1:2 dilution) of the CCK-8 reagent was added to each micro-culture plate well after which time the plates were incubated at […] for 3 hours. Absorbance at 450 nm was then measured using a microplate reader. Cell viability and proliferation for the IL-3-supplemented and FGF-5-supplemented groups was calculated as a measure of the optical density (OD) of cells treated with a test compound relative to the OD of the respective untreated controls, excluding the OD of blank controls (media only). Dose response curves were plotted and the respective inhibitory concentrations (IC50) for the test compounds were determined.

[2] = system: murine vibrissae follicles; test: Hair shaft elongation of murine vibrissae follicles cultured ex vivo; design: species or system C3H mice; conditions: piperitone 0.1 mg/mL in culture medium
Description: Five week old male C3H mice (supplied by Japan SLC, lnc., Hamamatsu, Japan) were used for isolation of vibrissae follicles. The mice were sacrificed and the vibrissae follicles were carefully dissected from the mystacial pad. Briefly, the mystacial pad was cut into two sides (left and right). The skin cut, picked at the edge by tweezers, was washed in (i) 70% Ethanol for 30 seconds, (ii) PBS for 10 seconds, (iii) fresh PBS for 10 seconds, and (iv) another fresh PBS for 10 seconds. This washing process was repeated twice. After washing, the skin cut was placed inverted to expose the vibrissae follicles in Dulbecco's Modified Eagle's Medium (DMEM; Wako Pure Chemical, Osaka, Japan) at 37° C. Under a dissecting microscope, the surrounding tissue was removed from the follicles using tweezers, carefully so as not to destroy the structure of the follicles. The isolated follicles were then placed immediately into Williams' E medium (Life Technologies, Carlsbad, USA).
From the isolated mouse vibrissae follicles, only early anagen follicles were selected and randomized into groups with 30 follicles per group. […]
Follicles in each of the treatment and control groups were incubated at 37° C. at 5% CO2 for 8 days, while exchanging the respective culture mediums every 2 days. From Day 1, elongation of hair shafts was observed and the elongation length was measured for each hair shaft every 24 hours from Day 1 to Day 8 using a micrometer under microscope. […]
Follicles in each of the treatment and control groups were incubated at 37° C. at 5% CO2 for 5 days, while exchanging the culture medium every 3 days. From Day 1, elongation of hair shafts was observed and the elongation length was measured for each hair shaft every 24 hours from Day 1 to Day 5. using a micrometer under microscope. […]

## CC1=CC(=O)C(C(C)C)CC1 (stereo not shown) [Piperitone, 3-Methyl-6-(propan-2-yl)cyclohex-2-en-1-one]
[1]; judged from FR-BaF3 result
  FGF-5-inhibitory activity (in words): potent FGF-5-inhibitory active substances
[1]; ratio of the IC50 with IL-3 to the IC50 with FGF-5, BR: less reproducible
  FGF-5 Specificity IL-1/FGF-5: 25
[2]; 5 days (FIG. 22)
  hair shaft elongation over time: continued steadily and consistently throughout the culture period
[2]; versus control
  hair growth: increased hair growth
